Laboratory results: US5635477A, “Cyclic compounds useful as inhibitors of platelet glycoprotein IIB/IIIA” (The DuPont Merck Pharmaceutical Company, priority 1995, dated 1997)
Starred links: 1 amine or outer side, 2 acyl side, 3 side chain; linkers in the order of their positions; H or OH if unused. Non-standard residues stand in square brackets, D forms with d. Residues, ends and D or L forms follow the SMILES beside them. NMePhe(4-CH2NH2) = CN[C@@H](Cc1ccc(CN)cc1)C(=O)O; X5 = O=C(c1ccc(I)c(CN[*:1])c1)[*:2]; NMeOrn(Me) = CNCCC[C@H](NC)C(=O)O; NMeR = CN[C@@H](CCCNC(=N)N)C(=O)O; dPhg = N[C@@H](C(=O)O)c1ccccc1; dNle = CCCC[C@@H](N)C(=O)O; 3Amb = NCc1cccc(C(=O)O)c1; dAbu = CC[C@@H](N)C(=O)O; βAla = NCCC(=O)O; Sar = CNCC(=O)O

Molecular target: agonist-induced platelet aggregation (Homo sapiens, UniProt P05106+P08514)
Sequence (P08514 32-1039): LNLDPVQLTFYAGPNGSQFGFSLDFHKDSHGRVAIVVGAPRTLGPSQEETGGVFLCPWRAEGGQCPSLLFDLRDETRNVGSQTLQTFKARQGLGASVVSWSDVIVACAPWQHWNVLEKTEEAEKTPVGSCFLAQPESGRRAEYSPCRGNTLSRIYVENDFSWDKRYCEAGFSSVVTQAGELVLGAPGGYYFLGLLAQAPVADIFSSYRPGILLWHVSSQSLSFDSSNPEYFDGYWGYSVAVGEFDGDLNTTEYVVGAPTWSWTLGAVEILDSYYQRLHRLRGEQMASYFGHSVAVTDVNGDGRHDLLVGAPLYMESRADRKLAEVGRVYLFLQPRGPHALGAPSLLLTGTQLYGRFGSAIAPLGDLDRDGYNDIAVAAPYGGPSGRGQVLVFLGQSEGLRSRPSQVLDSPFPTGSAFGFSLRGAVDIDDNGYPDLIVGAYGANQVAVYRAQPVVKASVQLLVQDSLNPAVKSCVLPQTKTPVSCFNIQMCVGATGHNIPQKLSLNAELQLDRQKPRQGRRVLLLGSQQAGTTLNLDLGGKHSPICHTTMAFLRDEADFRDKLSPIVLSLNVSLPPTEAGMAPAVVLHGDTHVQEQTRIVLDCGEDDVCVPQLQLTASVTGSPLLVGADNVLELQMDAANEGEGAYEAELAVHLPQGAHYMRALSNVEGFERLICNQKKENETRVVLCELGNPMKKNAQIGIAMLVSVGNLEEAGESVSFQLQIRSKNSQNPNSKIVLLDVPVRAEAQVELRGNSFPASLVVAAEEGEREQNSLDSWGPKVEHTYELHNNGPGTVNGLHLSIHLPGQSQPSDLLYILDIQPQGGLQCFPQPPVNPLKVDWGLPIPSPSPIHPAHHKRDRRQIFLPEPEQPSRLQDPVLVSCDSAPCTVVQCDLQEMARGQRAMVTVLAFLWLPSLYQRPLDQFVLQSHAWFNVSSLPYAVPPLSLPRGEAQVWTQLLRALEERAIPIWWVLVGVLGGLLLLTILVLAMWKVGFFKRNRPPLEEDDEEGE
Sequence (P05106 27-788): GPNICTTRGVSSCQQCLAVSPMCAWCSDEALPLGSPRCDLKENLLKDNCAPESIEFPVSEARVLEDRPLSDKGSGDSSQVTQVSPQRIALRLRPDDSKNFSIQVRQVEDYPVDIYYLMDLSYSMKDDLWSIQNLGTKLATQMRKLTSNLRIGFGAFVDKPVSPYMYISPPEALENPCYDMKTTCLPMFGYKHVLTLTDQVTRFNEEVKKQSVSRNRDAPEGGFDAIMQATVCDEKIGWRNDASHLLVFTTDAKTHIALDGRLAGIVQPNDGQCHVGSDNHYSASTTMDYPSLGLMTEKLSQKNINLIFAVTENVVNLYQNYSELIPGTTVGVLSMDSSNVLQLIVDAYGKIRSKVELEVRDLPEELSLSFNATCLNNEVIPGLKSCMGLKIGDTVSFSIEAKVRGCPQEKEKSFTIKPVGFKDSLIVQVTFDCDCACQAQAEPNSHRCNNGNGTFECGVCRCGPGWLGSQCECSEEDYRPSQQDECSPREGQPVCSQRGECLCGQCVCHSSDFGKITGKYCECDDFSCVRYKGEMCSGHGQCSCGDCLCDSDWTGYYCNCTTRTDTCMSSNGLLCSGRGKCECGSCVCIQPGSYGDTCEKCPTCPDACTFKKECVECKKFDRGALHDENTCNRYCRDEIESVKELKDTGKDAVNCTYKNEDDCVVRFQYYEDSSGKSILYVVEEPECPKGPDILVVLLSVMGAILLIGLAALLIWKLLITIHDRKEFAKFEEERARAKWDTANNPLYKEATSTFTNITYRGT
Test: Platelet Aggregation Assay
Assay type: cell-based
Conditions: human PRP; agonist-induced aggregation
Description: Blood was collected into 10 ml citrated Vacutainer tubes.

| Structure (SMILES) | IC50 [nM] |
| --- | --- |
| CC(C)[C@H]1NC(=O)c2cccc(c2)CNC(=O)C(C)(CC(=O)O)NC(=O)CNC(=O)[C@H](CCCNC(=N)N)N(C)C1=O (single isomer, unassigned) [Example 63, cyclo-(D-Val-NMeArg-Gly-α-MeAsp-Mamb)] | 1000 to 10000 |
| CC(C)[C@H]1NC(=O)c2cccc(c2)CNC(=O)C(C)(CC(=O)O)NC(=O)CNC(=O)[C@H](CCCNC(=N)N)N(C)C1=O (single isomer, unassigned) [Example 63a, cyclo-(D-Val-NMeArg-Gly-α-MeAsp-Mamb)] | 10000 to 100000 |
| CC(C)[C@H]1NC(=O)c2ccc3c(c2)C(CCC3)NC(=O)[C@H](CC(=O)O)NC(=O)CNC(=O)[C@H](CCCNC(=N)N)N(C)C1=O (single isomer, unassigned) [Example 89a, cyclo-(D-Val-NMeArg-Gly-Asp-aminotetralincarboxylic acid)] | < 1000 |
| CC(C)[C@H]1NC(=O)c2ccc3c(c2)C(CCC3)NC(=O)[C@H](CC(=O)O)NC(=O)CNC(=O)[C@H](CCCNC(=N)N)N(C)C1=O (single isomer, unassigned) [Example 89b, cyclo-(D-Val-NMeArg-Gly-Asp-aminotetralincarboxylic acid)] | < 1000 |
| CN1C(=O)CNC(=O)c2cccc(c2)CNC(=O)[C@H](CC(=O)O)NC(=O)CNC(=O)[C@@H]1CCCNC(=N)N [Example 1, cyclo-(Gly-NMeArg-Gly-Asp-Mamb)] (cyclo([NMeR]GD[3Amb]G)) | < 1000 |
| C[C@H]1NC(=O)c2cccc(c2)CNC(=O)[C@H](CC(=O)O)NC(=O)CNC(=O)[C@H](CCCNC(=N)N)N(C)C1=O [Example 2, cyclo-(D-Ala-NMeArg-Gly-Asp-Mamb)] (cyclo([NMeR]GD[3Amb][dA])) | < 1000 |
| CC(C)[C@H]1NC(=O)c2cccc(c2)CNC(=O)[C@H](CC(=O)O)NC(=O)CNC(=O)[C@@H](CCCNC(=N)N)N(C)C1=O [Example 4b, cyclo-(D-Val-D-NMeArg-Gly-Asp-Mamb)] | 1000 to 10000 |
| CC(C)C[C@H]1NC(=O)c2cccc(c2)CNC(=O)[C@H](CC(=O)O)NC(=O)CNC(=O)[C@H](CCCNC(=N)N)N(C)C1=O [Example 5, cyclo-(D-Leu-NMeArg-Gly-Asp-Mamb)] (cyclo([NMeR]GD[3Amb][dL])) | < 1000 |
| CCCC[C@H]1NC(=O)c2cccc(c2)CNC(=O)[C@H](CC(=O)O)NC(=O)CNC(=O)[C@H](CCCNC(=N)N)N(C)C1=O [Example 7, cyclo-(D-Nle-NMeArg-Gly-Asp-Mamb)] (cyclo([NMeR]GD[3Amb][dNle])) | < 1000 |
| CN1C(=O)[C@@H](c2ccccc2)NC(=O)c2cccc(c2)CNC(=O)[C@H](CC(=O)O)NC(=O)CNC(=O)[C@@H]1CCCNC(=N)N [Example 11, cyclo-(D-Phg-NMeArg-Gly-Asp-Mamb)] (cyclo([NMeR]GD[3Amb][dPhg])) | < 1000 |
| CN1C(=O)[C@@H](Cc2ccccc2)NC(=O)c2cccc(c2)CNC(=O)[C@H](CC(=O)O)NC(=O)CNC(=O)[C@@H]1CCCNC(=N)N [Example 12, cyclo-(D-Phe-NMeArg-Gly-Asp-Mamb)] (cyclo([NMeR]GD[3Amb][dF])) | < 1000 |
| CN1C(=O)[C@@H](CCCCN)NC(=O)c2cccc(c2)CNC(=O)[C@H](CC(=O)O)NC(=O)CNC(=O)[C@@H]1CCCNC(=N)N [Example 13f, cyclo-(D-Lys-NMeArg-Gly-Asp-Mamb)] (cyclo([NMeR]GD[3Amb][dK])) | < 1000 |
| CC[C@@H](C)[C@H]1NC(=O)c2cccc(c2)CNC(=O)[C@H](CC(=O)O)NC(=O)CNC(=O)[C@H](CCCNC(=N)N)N(C)C1=O [Example 13r, cyclo-(D-Ile-NMeArg-Gly-Asp-Mamb)] (cyclo([NMeR]GD[3Amb][dI])) | < 1000 |
| CN1CC(=O)N(C)[C@@H](CCCNC(=N)N)C(=O)NCC(=O)N[C@@H](CC(=O)O)C(=O)NCc2cccc(c2)C1=O [Example 18, cyclo-(NMeGly-NMeArg-Gly-Asp-Mamb)] (cyclo([NMeR]GD[3Amb][Sar])) | < 1000 |
| CN1C(=O)[C@H]2CCCN2C(=O)c2cccc(c2)CNC(=O)[C@H](CC(=O)O)NC(=O)CNC(=O)[C@@H]1CCCNC(=N)N [Example 25, cyclo-(D-Pro-NMeArg-Gly-Asp-Mamb)] (cyclo([NMeR]GD[3Amb][dP])) | < 1000 |
| CN1C(=O)CCNC(=O)c2cccc(c2)CNC(=O)[C@H](CC(=O)O)NC(=O)CNC(=O)[C@@H]1CCCNC(=N)N [Example 28c, cyclo-(b-Ala-NMeArg-Gly-Asp-Mamb)] (cyclo([NMeR]GD[3Amb][βAla])) | < 1000 |
| CN1C(=O)[C@@H](Cc2ccc(O)cc2)NC(=O)c2cccc(c2)CNC(=O)[C@H](CC(=O)O)NC(=O)CNC(=O)[C@@H]1CCCNC(=N)N [Example 28f, cyclo-(D-Tyr-NMeArg-Gly-Asp-Mamb)] (cyclo([NMeR]GD[3Amb][dY])) | < 1000 |
| N=C(N)NCCC[C@@H]1NC(=O)CNC(=O)c2cccc(c2)CNC(=O)[C@H](CC(=O)O)NC(=O)CNC1=O [Example 29, cyclo-(Gly-Arg-Gly-Asp-Mamb)] (cyclo(RGD[3Amb]G)) | 1000 to 10000 |
| C[C@H]1NC(=O)c2cccc(c2)CNC(=O)[C@H](CC(=O)O)NC(=O)CNC(=O)[C@H](CCCNC(=N)N)NC1=O [Example 30, cyclo-(D-Ala-Arg-Gly-Asp-Mamb)] (cyclo(RGD[3Amb][dA])) | 1000 to 10000 |

| Structure (SMILES) | IC50 [nM] |
| --- | --- |
| CC(C)[C@H]1NC(=O)c2cccc(c2)CNC(=O)[C@H](CC(=O)O)NC(=O)CNC(=O)[C@H](CCCNC(=N)N)NC1=O [Example 32, cyclo-(D-Val-Arg-Gly-Asp-Mamb)] | 1000 to 10000 |
| CC(C)C[C@H]1NC(=O)c2cccc(c2)CNC(=O)[C@H](CC(=O)O)NC(=O)CNC(=O)[C@H](CCCNC(=N)N)NC1=O [Example 33, cyclo-(D-Leu-Arg-Gly-Asp-Mamb)] (cyclo(RGD[3Amb][dL])) | 1000 to 10000 |
| CC[C@H]1NC(=O)c2cccc(c2)CNC(=O)[C@H](CC(=O)O)NC(=O)CNC(=O)[C@H](CCCNC(=N)N)NC1=O [Example 34, cyclo-(D-Abu-Arg-Gly-Asp-Mamb)] (cyclo(RGD[3Amb][dAbu])) | 1000 to 10000 |
| N=C(N)NCCC[C@@H]1NC(=O)[C@@H](CO)NC(=O)c2cccc(c2)CNC(=O)[C@H](CC(=O)O)NC(=O)CNC1=O [Example 35, cyclo-(D-Ser-Arg-Gly-Asp-Mamb)] (cyclo(RGD[3Amb][dS])) | 1000 to 10000 |
| N=C(N)NCCC[C@@H]1NC(=O)[C@@H](Cc2ccccc2)NC(=O)c2cccc(c2)CNC(=O)[C@H](CC(=O)O)NC(=O)CNC1=O [Example 36, cyclo-(D-Phe-Arg-Gly-Asp-Mamb)] (cyclo(RGD[3Amb][dF])) | 10000 to 100000 |
| N=C(N)NCCC[C@@H]1NC(=O)[C@H](Cc2ccccc2)NC(=O)c2cccc(c2)CNC(=O)[C@H](CC(=O)O)NC(=O)CNC1=O [Example 37, cyclo-(Phe-Arg-Gly-Asp-Mamb)] (cyclo(RGD[3Amb]F)) | 10000 to 100000 |
| CC(C)[C@H]1NC(=O)c2cccc(c2)CNC(=O)[C@H](CC(=O)O)NC(=O)CNC(=O)[C@H](Cc2ccc(CN)cc2)N(C)C1=O [Example 40, cyclo-(D-Val-NMeAmf-Gly-Asp-Mamb)] (cyclo([dV][NMePhe(4-CH2NH2)]GD[3Amb])) | < 1000 |
| CC(C)[C@H]1NC(=O)c2cccc(c2)CNC(=O)[C@H](CC(=O)O)NC(=O)CCNC(=O)[C@H](CCCNC(=N)N)N(C)C1=O [Example 54, cyclo-(D-Val-NMeArg-b-Ala-Asp-Mamb)] (cyclo([3Amb][dV][NMeR][βAla]D)) | 1000 to 10000 |
| CC(C)[C@H]1NC(=O)c2cccc(c2)CNC(=O)[C@H](CC(=O)O)NC(=O)[C@H](C)NC(=O)[C@H](CCCNC(=N)N)N(C)C1=O [Example 58c, cyclo-(D-Val-NMeArg-L-Ala-Asp-Mamb)] (cyclo([3Amb][dV][NMeR]AD)) | 10000 to 100000 |
| CC(C)[C@H]1NC(=O)c2cccc(c2)CNC(=O)[C@H](CC(=O)O)N(C)C(=O)CNC(=O)[C@H](CCCNC(=N)N)N(C)C1=O [Example 64b, cyclo-(D-Val-NMeArg-Gly-NMeAsp-Mamb)] | 1000 to 10000 |
| CC(C)[C@H]1NC(=O)c2cccc(c2)CNC(=O)[C@@H](CC(=O)O)NC(=O)CNC(=O)[C@H](CCCNC(=N)N)N(C)C1=O [Example 64c, cyclo-(D-Val-NMeArg-Gly-D-Asp-Mamb)] | 1000 to 10000 |
| CC(C)[C@H]1NC(=O)c2ccc3cccc(c3c2)CNC(=O)[C@H](CC(=O)O)NC(=O)CNC(=O)[C@H](CCCNC(=N)N)N(C)C1=O [Example 89c, cyclo-(D-Val-NMeArg-Gly-Asp-aminomethylnaphthoic acid)] | 1000 to 10000 |
| CC[C@H]1NC(=O)c2ccc(I)c(c2)CNC(=O)[C@H](CC(=O)O)NC(=O)CNC(=O)[C@H](CCCNC(=N)N)N(C)C1=O [Example 89d, cyclo-(D-Abu-NMeArg-Gly-Asp-iodo-Mamb)] (cyclo([NMeR]GD[X5][dAbu])) | < 1000 |
| CC[C@H]1NC(=O)c2cccc(c2)CNC(=O)[C@H](CC(=O)O)NC(=O)CNC(=O)[C@H](CCCNC)N(C)C1=O [Example 89e, cyclo-(D-Abu-di-NMeOrn-Gly-Asp-Mamb)] (cyclo([dAbu][NMeOrn(Me)]GD[3Amb])) | 1000 to 10000 |
| CC(C)[C@H]1NC(=O)c2ccccc2CNC(=O)[C@H](CC(=O)O)NC(=O)CNC(=O)[C@H](CCCNC(=N)N)N(C)C1=O [Example 91, cyclo-(D-Val-NMeArg-Gly-Asp-2-aminomethylbenzoic acid)] | < 1000 |
| CC(C)[C@H]1NC(=O)Cc2cccc(c2)NC(=O)[C@H](CC(=O)O)NC(=O)CNC(=O)[C@H](CCCNC(=N)N)N(C)C1=O [Example 92, cyclo-(D-Val-NMeArg-Gly-Asp-3-aminophenylacetic acid)] | < 1000 |
| CC(C)[C@H]1NC(=O)c2ccc(Cl)c(c2)CNC(=O)[C@H](CC(=O)O)NC(=O)CNC(=O)[C@H](CCCNC(=N)N)N(C)C1=O [Example 93, cyclo-(D-Val-NMeArg-Gly-Asp-3-aminomethyl-4-chlorobenzoic acid)] | < 1000 |
| CC(C)[C@H]1NC(=O)c2ccc(I)c(c2)CNC(=O)[C@H](CC(=O)O)NC(=O)CNC(=O)[C@H](CCCNC(=N)N)N(C)C1=O [Example 94, cyclo-(D-Val-NMeArg-Gly-Asp-iodo-Mamb)] | < 1000 |
| CC(C)[C@H]1NC(=O)c2cc(ccc2Cl)CNC(=O)[C@H](CC(=O)O)NC(=O)CNC(=O)[C@H](CCCNC(=N)N)N(C)C1=O [Example 97, cyclo-(D-Val-NMeArg-Gly-Asp-3-aminomethyl-6-chlorobenzoic acid)] | < 1000 |
